Measured values from US8962600B2, “Neuroprotective compounds and their use” (The Medical College of Wisconsin, Inc., priority 2009, dated 2015).

How the values were obtained:
[1] = tested on: BV2 microglial cells; test: LPS-induced iNOS activation (nitrite, Griess reagent) in BV2 microglial cells; assay type: cell-based, mouse; settings: 30 min pretreatment, Griess reagent
Protocol: Two cell models of neuroinflammation were used to evaluate the anti-neuroinflammatory property of diapocynin including the mouse BV2 microglial cell line, as well as primary microglia isolated from mouse brains. BV2 cells were obtained from the American Tissue Culture Collection. BV2 cells were maintained in RPMI containing 10% FBS and 100 units of pen/strep at 37° C. and 5% CO2. For treatments, RPMI containing 2% FBS and 100 units of pen/strep was used.
Inducible nitric oxide synthase (iNOS or NOS2) activation was assessed by measuring nitrite levels using Griess reagent in a 96-well format (70-72). Each well contained 40,000 BV2 cells or 100,000 primary microglia. BV2 cells were cultured in 150 μl of RPMI containing 10% FBS and pen/strep, and the primary microglia were cultured in DMEM-F12 containing 10% FBS, pen/strep, sodium pyruvate (S/P), Q, and NEAAs. One day after culturing, cells were replaced with 150 μl of their respective complete media containing only 2% FBS. Both cell types were pretreated with diapocynin (10 μM) and apocynin (100 μM) for 30 min before LPS stimulation (1 μg/ml LPS for BV2 cells and 100 ng/ml for primary microglia), and the plates were incubated at 37° C. After 24 hr at 37° C., 100 μl of supernatant were removed and placed into a new 96 well plate, to which 100 μl of Griess reagent were added. The plate was shaken on a plate shaker for 10 min before being read in a plate reader at 540 nm.
This example generally followed the cell culture, treatment, and analysis steps of Example 4 above.
Diapocynin diacetate (diapodiacetate or diapo diace) suppresses LPS-induced NOS-2 in BV2 microglial cells (FIG. 21). BV-2 cells were plated in 96 well plates, 40,000 cells per well, and treated in 150 μl of RPMI containing 2% heat inactivated FBS and penicillin/streptomycin. Diapo diacetate was used on the cells as a 30 min pretreatment, then LPS (1 μg/ml) was added. All treatments were allowed to incubate at 37° C. for 24 hr, starting from the addition of LPS. One hundred microliter aliquots of supernatant from each well were combined with 100 μl of Griess reagent (Sigma) in a 96-well plate and allowed to shake for 10 minutes before being read on the plate reader. The percent nitrite level for the treatments compared to the control was graphed.

[2] = tested on: IL-12; test: LPS-induced IL-12 release in primary microglia, LUMINEX immunoassay; assay type: cell-based, mouse; settings: apocynin 100 μM, LPS 24 hr
Protocol: (§1) Primary microglia were obtained from 1-2 day old C57/b16 mouse pups. Upon collection, whole brains were kept in ice-cold DMEM-F12 medium containing 10% FBS, 1× sodium pyruvate, 1× NEAAs, 100 units pen/strep, and Q. After collection, the brains were placed in 0.25% trypsin-EDTA and incubated at 37° C., with gentle shaking every 5-10 min. After 30 min, the trypsin was removed, and the brains are washed in warmed medium twice. After washing, medium was added to the brains, and the brains were homogenized using gentle pipetting, starting with a 25 ml pipette and moving to smaller pipette tips as the brains were broken up. When the brains were sufficiently homogenized to a single-cell suspension, they were filtered with a 70 μm nylon filter, which allowed microglia and astrocytes to be collected. The resultant cell suspension was plated in T-75 flasks and allowed to grow for 12-14 days at 37° C., 5% CO2. […]
(§2) Cytokine levels of BV2 and microglial cells treated with diapocynin were determined by LUMINEX® multiplex immunoassay. […]
(§3) Cytokine standards and controls were adjusted to 40 μl volume and the LUMINEX® Samples were run on a LUMINEX® 200 Total System and analyzed with Multiplex Analysis—LUMINEX® Software (Invitrogen, Carlsbad, Calif.).

[3] = tested on: subchronic MPTP mouse model; test: Subchronic MPTP mouse model, striatal neurotransmitters by HPLC-EC (Example 2); assay type: in vivo; settings: for protection against subchronic MPTP-induced depletion of striatal dopac levels / protection against subchronic MPTP-induced depletion of striatal dopamine levels: MPTP 20 mg/kg i.p. 5 days
Protocol: The triphenylphosphonium-conjugated apocynin analogue, Mito-apocynin, acts as a potent mitochondrial targeted antioxidant (MTA). The nigrostriative dopaminergic neurons undergo destruction in a slow and progressive manner in idiopathic PD. In order to mimic this condition in a preclinical mouse model, a subchronic MPTP mouse model was developed. The mouse model used here was similar to that used in Example 3 below. Mice were treated with Mito-apocynin (3 mg/kg, oral gavage) for 1 day followed by subchronic MPTP (20 mg/kg, i.p.) administration for 5 days. Animals were sacrificed 7 days after the last dose of MPTP (Mito-apocynin was administered during the 7 days). Striatal neurotransmitters (dopamine, dopac) were analyzed by HPLC-EC. Similar experiments were performed with apocynin (20 mg/kg, oral gavage; lower doses were also tested but not effective).

[4] = tested on: TNF-α; test: LPS-induced TNF-α release in primary microglia, LUMINEX immunoassay; assay type: cell-based, mouse; settings: apocynin 100 μM, LPS 24 hr
Protocol: as §1, §2, §3

[5] = tested on: IL-1β; test: LPS-induced IL-1β release in primary microglia, LUMINEX immunoassay; assay type: cell-based, mouse; settings: apocynin 100 μM, LPS 24 hr
Protocol: as §1, §2, §3

[6] = tested on: IL-10; test: LPS-induced IL-10 release in primary microglia, LUMINEX immunoassay; assay type: cell-based, mouse; settings: apocynin 100 μM, LPS 24 hr
Protocol: as §1, §2, §3

[7] = tested on: G93A mice; settings: apocynin 300 mg/kg; cited from earlier work
[8] = Mito-apocynin 3 mg/kg oral gavage, sacrifice 7 days after last MPTP dose

COc1cc(C(C)=O)ccc1O [apocynin, Apocynin, reference compound]
EC50 ([1]; Mus musculus, BV-2 cells, LPS 1 μg/ml, non-linear regression of dose response curve, read-out: EC50, block of LPS-induced iNOS activation (nitrite level)): 61.3 µM | blocking LPS-induced release of IL-12 [2]: also effective | protection against subchronic MPTP-induced depletion of striatal dopac levels ([3]; apocynin 20 mg/kg oral gavage): not | protection against subchronic MPTP-induced depletion of striatal dopamine levels ([3]; apocynin 20 mg/kg oral gavage): not | effect on striatal neurotransmitters (dopamine, dopac) ([3]; apocynin at doses lower than 20 mg/kg, oral gavage): not effective | blocking LPS-induced release of TNF-α [4]: also effective | blocking LPS-induced release of IL-1β [5]: also effective | blocking LPS-induced release of IL-10 [6]: also effective | lifespan of G93A mice [7]: markedly enhanced

Diapocynin diacetate
LPS-induced NOS-2 (percent nitrite level compared to control) ([1]; BV2 cells, LPS 1 μg/ml 24 hr): suppresses

COc1cc(C(=O)NCC[P+](c2ccccc2)(c2ccccc2)c2ccccc2)ccc1O.[Br-] [Mito-apocynin]
protection against subchronic MPTP-induced depletion of striatal dopac levels [3, 8]: almost completely protected | protection against subchronic MPTP-induced depletion of striatal dopamine levels [3, 8]: almost completely protected
